Experiment [1] addresses T1, adenylate kinase (AdK) (Escherichia coli, UniProt P69441). In words: isothermal titration calorimetry. In kind it is binding. (Isothermal titration calorimetry measures the heat released or taken up as one component is titrated into another.)
The target in experiment [2] is T1, adenylate kinase (AdK). Kind of experiment: steady-state enzyme kinetics. It is filed as biochemical. The note with it: cited from earlier work.

For 2 compounds, Kd and Km results are on record in PMC8297476 (Biochemistry, 2021).

Structures are written as SMILES.

T1 sequence (P69441 whole entry): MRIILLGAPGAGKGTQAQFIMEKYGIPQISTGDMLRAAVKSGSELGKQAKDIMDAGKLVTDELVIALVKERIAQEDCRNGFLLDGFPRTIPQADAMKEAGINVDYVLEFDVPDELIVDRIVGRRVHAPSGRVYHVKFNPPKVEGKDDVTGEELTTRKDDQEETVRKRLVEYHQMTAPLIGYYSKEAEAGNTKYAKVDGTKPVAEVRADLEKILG

The term Kd denotes the constant that tells how readily two partners part at equilibrium. The compound `Nc1ncnc2c1ncn2[C@@H]1O[C@H](COP(=O)(O)OP(=O)(O)O)[C@@H](O)[C@H]1O` [ADP] came in with a Kd at adenylate kinase (AdK) [1] of 9 µM.

Broadly, the Km is the concentration of substrate that gives half-maximal velocity. In the case of `Nc1ncnc2c1ncn2[C@@H]1O[C@H](COP(=O)(O)OP(=O)(O)OP(=O)(O)O)[C@@H](O)[C@H]1O` [ATP], at adenylate kinase (AdK) [2], the Km was 71 µM.
